Test results taken from patent US7700590B2, “Antibacterial agents” (University of New Orleans Research and Technology …, priority 2006, dated 2010).
In brackets after ≈: the same amount, converted by molar mass.

Assays:
Assay type in all cases: cell-based
[1] = tested on: Gram positive bacteria, including S. aureus, E. faecalis and B. subtilis; assay: Antibacterial activity, statements not tied to one strain; settings: strain not singled out
Description: (§1) The antibacterial activities of the compounds synthesized as described above were evaluated by assay against several strains of Gram positive bacteria from the American Type Culture Collection (ATCC), Staphylococcus aureus 29213, Staphylococcus aureus 43300, Enterococcus faecalis 29212, and Bacillus subtilis PY79. The minimum inhibition concentration (MIC, μg/mL) of each compound synthesized was tested against four bacterial strains. The inhibition of bacterial growth was monitored using a standard colorimeter at 600 nm using a serial dilution at concentrations 238, 119, 59.5, 29.8, 14.9, 7.44, 3.72, 1.86, 0.93, 0.46 μg/ml. Chloramphenicol was tested as a control, and inhibits bacteria growth (MIC90) at 7.44, 7.44, 4.0, 2.0 μg/mL, respectively, for the four bacterial strains listed in Table 1. In Table 1, the MICs are reported as the concentrations at 50% inhibition of bacteria growth, and N stands for no inhibition.

[2] = tested on: Staphylococcus aureus 43300; assay: Antibacterial growth inhibition assay (serial dilution, colorimeter at 600 nm), S. aureus 43300; set-up: key to MIC, concentration at 50% inhibition of bacteria growth, S. aureus 43300: N stands for no inhibition; settings: for MIC, concentration at 50% inhibition of bacteria growth, S. aureus 43300: 50% growth inhibition, methicillin resistant strain, serial dilution 238-0.46 μg/ml
Description: as §1

[3] = tested on: Staphylococcus aureus 29213; assay: Antibacterial growth inhibition assay (serial dilution, colorimeter at 600 nm), S. aureus 29213; set-up: key to MIC, concentration at 50% inhibition of bacteria growth, S. aureus 29213: N stands for no inhibition; settings: for MIC, concentration at 50% inhibition of bacteria growth, S. aureus 29213: 50% growth inhibition, methicillin susceptible strain, serial dilution 238-0.46 μg/ml
Description: as §1

Bacillus subtilis PY79 = assay: Antibacterial growth inhibition assay (serial dilution, colorimeter at 600 nm), B. subtilis PY79; set-up: key to MIC, concentration at 50% inhibition of bacteria growth, B. subtilis PY79: N stands for no inhibition; settings: for MIC, concentration at 50% inhibition of bacteria growth, B. subtilis PY79: 50% growth inhibition, serial dilution 238-0.46 μg/ml
Description: as §1

[4] = tested on: Enterococcus faecalis 29212; assay: Antibacterial growth inhibition assay (serial dilution, colorimeter at 600 nm), E. faecalis 29212; settings: for MIC, concentration at 50% inhibition of bacteria growth, E. faecalis 29212: 50% growth inhibition, vancomycin susceptible strain, serial dilution 238-0.46 μg/ml
Description: as §1

Compound | antibacterial activity in words [1] | MIC90 ([2]; Staphylococcus aureus, S. aureus 43300, read-out: MIC90 (control)) | MIC90 ([3]; Staphylococcus aureus, S. aureus 29213, read-out: MIC90 (control)) | MIC90 (Bacillus subtilis PY79; Bacillus subtilis, B. subtilis PY79, read-out: MIC90 (control)) | MIC90 ([4]; Enterococcus faecalis, E. faecalis 29212, read-out: MIC90 (control)) | MIC, concentration at 50% inhibition of bacteria growth, S. aureus 43300 [2] | MIC, concentration at 50% inhibition of bacteria growth, S. aureus 29213 [3] | MIC, concentration at 50% inhibition of bacteria growth, B. subtilis PY79 (Bacillus subtilis PY79) | MIC, concentration at 50% inhibition of bacteria growth, E. faecalis 29212 [4] | antibacterial activity in words ([2]; S. aureus 43300) | antibacterial activity in words ([3]; S. aureus 29213)
CCN1CC[C@@H](CN(Cc2ccccc2)Cc2ccc(Cl)c(Cl)c2)OC1=O (stereo in doubt) [Compound A11, 6-{[benzyl-(3,4-dichloro-benzyl)-amino]-methyl}-3-ethyl-[1,3]oxazinan-2-one] | good activity | – | – | – | – | – | – | – | – | – | –
O=C(N[C@H](CO)[C@H](O)c1ccc([N+](=O)[O-])cc1)C(Cl)Cl [Chloramphenicol, reference compound] | – | 7.44 µg/mL (≈ 23 µM) | 7.44 µg/mL (≈ 23 µM) | 2 µg/mL (≈ 6.19 µM) | 4 µg/mL (≈ 12.4 µM) | – | – | – | – | – | –
CCN1CC[C@@H](CN(Cc2ccccc2)Cc2ccc([N+](=O)[O-])cc2)OC1=O [Compound A1] | – | – | – | – | – | N | N | N | 45.0 µg/mL | – | –
CCN1CC[C@@H](CN(Cc2ccccc2)Cc2cccc([N+](=O)[O-])c2)OC1=O [Compound A2] | – | – | – | – | – | 22.0 µg/mL | 90.0 µg/mL | 108 µg/mL | 47.0 µg/mL | – | –
CCN1CC[C@@H](CN(Cc2ccccc2)Cc2ccccc2[N+](=O)[O-])OC1=O [Compound A3] | – | – | – | – | – | 100 µg/mL | 72.0 µg/mL | 100 µg/mL | 43.0 µg/mL | – | –
CCN1CC[C@@H](CN(Cc2ccccc2)Cc2ccc(C#N)cc2)OC1=O [Compound A4] | – | – | – | – | – | 59.5 µg/mL | 180 µg/mL | 10.0 µg/mL | 12.0 µg/mL | – | –
CCN1CC[C@@H](CN(Cc2ccccc2)Cc2cccc(C#N)c2)OC1=O [Compound A5] | – | – | – | – | – | N | 238 µg/mL | 238 µg/mL | 45.0 µg/mL | – | –
CCN1CC[C@@H](CN(Cc2ccccc2)Cc2ccccc2C#N)OC1=O [Compound A6] | – | – | – | – | – | 180 µg/mL | 130 µg/mL | 160 µg/mL | 33.0 µg/mL | – | –
CCN1CC[C@@H](CN(Cc2ccccc2)Cc2ccc(F)cc2)OC1=O [Compound A7] | – | – | – | – | – | 47.0 µg/mL | 64.0 µg/mL | 42.5 µg/mL | 35.0 µg/mL | – | –
CCN1CC[C@@H](CN(Cc2ccccc2)Cc2ccc(F)cc2F)OC1=O [Compound A8] | – | – | – | – | – | 50.5 µg/mL | 45.0 µg/mL | 38.0 µg/mL | 59.5 µg/mL | – | –
CCN1CC[C@@H](CN(Cc2ccccc2)Cc2c(F)cccc2F)OC1=O [Compound A9] | – | – | – | – | – | 70.0 µg/mL | 47.0 µg/mL | 77.0 µg/mL | 59.5 µg/mL | – | –
CCN1CC[C@@H](CN(Cc2ccccc2)Cc2cc(F)cc(F)c2)OC1=O [Compound A10] | – | – | – | – | – | 45.0 µg/mL | 40.0 µg/mL | 43.0 µg/mL | 37.0 µg/mL | – | –
CCN1CC[C@@H](CN(Cc2ccccc2)Cc2ccc3ccccc3c2)OC1=O [Compound A12] | – | – | – | – | – | N | 15.0 µg/mL | 29.0 µg/mL | 13.0 µg/mL | no activity | promising activity
CCN1CC[C@@H](CN(Cc2ccccc2)Cc2cccc(OC)c2)OC1=O [Compound A16] | – | – | – | – | – | 90.0 µg/mL | 90.0 µg/mL | 95.0 µg/mL | 80.5 µg/mL | – | –
CN1CC[C@@H](CN(Cc2ccccc2)Cc2ccc([N+](=O)[O-])cc2)OC1=O [Compound B1] | – | – | – | – | – | N | 81.0 µg/mL | 98.0 µg/mL | 119 µg/mL | – | –
CN1CC[C@@H](CN(Cc2ccccc2)Cc2cccc([N+](=O)[O-])c2)OC1=O [Compound B2] | – | – | – | – | – | N | 138 µg/mL | 238 µg/mL | 119 µg/mL | – | –
CN1CC[C@@H](CN(Cc2ccccc2)Cc2ccccc2[N+](=O)[O-])OC1=O [Compound B3] | – | – | – | – | – | N | 179 µg/mL | 238 µg/mL | 238 µg/mL | – | –
CN1CC[C@@H](CN(Cc2ccccc2)Cc2ccc(C#N)cc2)OC1=O [Compound B4] | – | – | – | – | – | N | 200 µg/mL | 238 µg/mL | 238 µg/mL | – | –
CN1CC[C@@H](CN(Cc2ccccc2)Cc2cccc(C#N)c2)OC1=O [Compound B5] | – | – | – | – | – | 238 µg/mL | 180 µg/mL | 180 µg/mL | 7.40 µg/mL | – | –
CN1CC[C@@H](CN(Cc2ccccc2)Cc2ccccc2C#N)OC1=O [Compound B6] | – | – | – | – | – | 180 µg/mL | 166 µg/mL | 180 µg/mL | 59.5 µg/mL | – | –
CN1CC[C@@H](CN(Cc2ccccc2)Cc2ccc(F)cc2)OC1=O [Compound B7] | – | – | – | – | – | 119 µg/mL | 87.1 µg/mL | 95.0 µg/mL | 120 µg/mL | – | –
CN1CC[C@@H](CN(Cc2ccccc2)Cc2ccc(F)cc2F)OC1=O [Compound B8] | – | – | – | – | – | 72.0 µg/mL | 50.0 µg/mL | 55.0 µg/mL | 59.5 µg/mL | – | –
